Results from US12514805B2, “Composition for suppressing skin irritation or inhibiting sebum secretion” (AMOREPACIFIC CORPORATION, priority 2022, dated 2026).

How the values were obtained:
[1] = tested on: SREBP1, SPERBP2, FAS, and ACACA; experiment: Comparison of retinoic acid signal transduction pathway modifiers: sebum-related gene expression in sebaceous gland cells; format: cell-based, human; conditions: for effect on sebum-related gene expression (SREBP1, SPERBP2, FAS, ACACA): sebaceous gland cells treated with 1 μM and 10 μM of each material, FIG. 5
Method: Primary sebocyte and human sebocyte complete medium were purchased from Celprogen and used.
After that, 1 ml of Trizol (Invitrogen) was added to the cells, and RNA was isolated from the cells according to the RNA isolation method (Invitrogen). The RNA was quantified using a UV detector (HEWLETT PACKARD) at 260 nm and subject to RT-PCR (reverse transcription-polymerase chain reaction).
(§1) Taqman probes were used for genetic analysis of SREBP1(Hs02561944_s1), SREBP2(Hs01081781_m1), fatty acid synthase(FAS: Hs01005622_m1), Acetyl-CoA Carboxylase(ACACA: Hs01046047_m1) for each sample, and normalization was performed with respect to the complementary gene RPL13A (Hs04194366_g1), and the result is shown in FIG. 4.

SREBP1 = experiment: Genetic analysis of cholesterol/fatty acid transcription factors in sebaceous gland cells: SREBP1; format: cell-based, human; conditions: primary sebocytes, cultured 2 days, RT-PCR, FIG. 4
Method: (§2) Primary sebocyte and human sebocyte complete medium were purchased from Celprogen and used. The sebaceous gland cells were dispensed in a 60 mm cell culture dish at a density of 1.25×10^4 cells/dish, and then cultured in a CO2 incubator under the condition of 37° C. and 5% CO2 at about 80% confluency. Thereafter, 0 μM, 1 μM, and 10 μM of the compound of Chemical Formula 1 (Seletinoid G) were treated with the cells, respectively, and the cells were cultured for 2 days, and then changes in transcription factors related to sebum biosynthesis were confirmed.
(§3) The cells were treated with the material of Example 3, and then, cultured for 2 days, and then, the cell growth medium was removed. After that, 1 ml of Trizol (Invitrogen) was added to the cells, and RNA was isolated from the cells according to the RNA isolation method (Invitrogen). The RNA was quantified using a UV detector (HEWLETT PACKARD) at 260 nm and subject to RT-PCR (reverse transcription-polymerase chain reaction).
as §1

SREBP2 = experiment: Genetic analysis of cholesterol/fatty acid transcription factors in sebaceous gland cells: SREBP2; format: cell-based, human; conditions: primary sebocytes, cultured 2 days, RT-PCR, FIG. 4
Method: as §2, §3, §1

[2] = tested on: fatty acid synthase (FAS); experiment: Genetic analysis of cholesterol/fatty acid transcription factors in sebaceous gland cells: FAS; format: cell-based, human; conditions: primary sebocytes, cultured 2 days, RT-PCR, FIG. 4
Method: as §2, §3, §1

[3] = tested on: Acetyl-CoA Carboxylase (ACACA); experiment: Genetic analysis of cholesterol/fatty acid transcription factors in sebaceous gland cells: ACACA; format: cell-based, human; conditions: primary sebocytes, cultured 2 days, RT-PCR, FIG. 4
Method: as §2, §3, §1

sebaceous gland cells = experiment: Cytotoxicity in sebaceous gland cells during the comparison of Example 5; format: cell-based, human; conditions: 10 μM
[4] = tested on: retinoic acid receptor (RAR); conditions: from paper of the Society of Cosmetic Scientists of Korea (2003); cited from earlier work

With Clc1cccc(C(c2ccc3[nH]cnc3c2)n2ccnc2)c1 (stereo not drawn) [liarozole, reference compound] the “effect on sebum-related gene expression (SREBP1, SPERBP2, FAS, ACACA)” value (shortened to “effect on sebum-related gene expression”) [1] was “did not show a significant difference”.
With O=C(/C=C/c1ccc2c(c1)OCO2)OCc1cc(=O)c(O)co1 [Seletinoid G, (5-hydroxy-4-oxopyran-2-yl)methyl (E)-3-(1,3-benzodioxol-5-yl)prop-2-enoate] the “expression level of SREBP1 reduced by” value (SREBP1; 1 μM) was “about 40%”, the “expression level of SREBP1 reduced by” value (SREBP1; 10 μM) was “about 60%” and the “expression level of SPERBP2 reduced by” value (SREBP2; 1 μM) was “about 40%”. For the same compound, the “expression level of SPERBP2 reduced by” value (SREBP2; 10 μM) was roughly 55%, the “expression level of FAS reduced by” value ([2]; 1 μM) was roughly 30% and the “expression level of FAS reduced by” value ([2]; 10 μM) was roughly 45%. For the same compound, the “expression level of ACACA reduced by” value ([3]; 1 μM) was roughly 30%, the “expression level of ACACA reduced by” value ([3]; 10 μM) was “about 60%” and the “effect on sebum-related gene expression” value [1] was “effect of suppressing sebum-related gene expression”. The “reduction of the expression level of the transcription factors (SREBP1a, SPERBP2, FAS, ACACA)” value ([1]; sebaceous gland cells, 10 μM) was “more than 60%”, the cytotoxicity (sebaceous gland cells) was “without causing cytotoxicity” and the “binding to retinoic acid receptor (specificity)” value [4] was “specifically binds to RARγ”.
In the case of CC1=C(/C=C/C(C)=C/C=C/C(C)=C/C(=O)Nc2ccc(O)cc2)C(C)(C)CCC1 [fenretinide, reference compound], the “effect on sebum-related gene expression” value [1] is reported as “effect of suppressing sebum-related gene expression”.
With CC1=C(/C=C/C(C)=C/C=C/C(C)=C/C(=O)O)C(C)(C)CCC1 [retinoic acid, reference compound] the cytotoxicity (sebaceous gland cells) was “some cytotoxicity”.
